Results taken from PMC11850817 (Scientific Reports, 2025).

Experiments:
FLT3 = FLT3 (Homo sapiens, UniProt P36888); test: Radiometric kinase assay; assay type: biochemical; conditions: read-out: Kinase inhibition (%) FLT3
AsPC-1 = test: MTT antiproliferative assay, AsPC-1; assay type: cell-based, human; conditions: Homo sapiens, ASPC1, 72 h, read-out: IC50 AsPC-1
Mia-Paca-2 = test: MTT antiproliferative assay, Mia-Paca-2; assay type: cell-based, human; conditions: Homo sapiens, MIA PaCa-2, 72 h, read-out: IC50 Mia-Paca-2
MCF-7 = test: MTT antiproliferative assay, MCF-7; assay type: cell-based, human; conditions: Homo sapiens, MCF7, 72 h, read-out: IC50 MCF-7
EBC-1 = test: MTT antiproliferative assay, EBC-1; assay type: cell-based, human; conditions: Homo sapiens, EBC-1, 72 h, read-out: IC50 EBC-1
FLT4 (VEGFR3) = FLT4 (VEGFR3) (Homo sapiens, UniProt P35916); test: Radiometric kinase assay; assay type: biochemical; conditions: for inhibition at 10 µM: read-out: Kinase inhibition (%) FLT4 (VEGFR3)
FLT4 (VEGFR3), sequence (P35916 25-1363): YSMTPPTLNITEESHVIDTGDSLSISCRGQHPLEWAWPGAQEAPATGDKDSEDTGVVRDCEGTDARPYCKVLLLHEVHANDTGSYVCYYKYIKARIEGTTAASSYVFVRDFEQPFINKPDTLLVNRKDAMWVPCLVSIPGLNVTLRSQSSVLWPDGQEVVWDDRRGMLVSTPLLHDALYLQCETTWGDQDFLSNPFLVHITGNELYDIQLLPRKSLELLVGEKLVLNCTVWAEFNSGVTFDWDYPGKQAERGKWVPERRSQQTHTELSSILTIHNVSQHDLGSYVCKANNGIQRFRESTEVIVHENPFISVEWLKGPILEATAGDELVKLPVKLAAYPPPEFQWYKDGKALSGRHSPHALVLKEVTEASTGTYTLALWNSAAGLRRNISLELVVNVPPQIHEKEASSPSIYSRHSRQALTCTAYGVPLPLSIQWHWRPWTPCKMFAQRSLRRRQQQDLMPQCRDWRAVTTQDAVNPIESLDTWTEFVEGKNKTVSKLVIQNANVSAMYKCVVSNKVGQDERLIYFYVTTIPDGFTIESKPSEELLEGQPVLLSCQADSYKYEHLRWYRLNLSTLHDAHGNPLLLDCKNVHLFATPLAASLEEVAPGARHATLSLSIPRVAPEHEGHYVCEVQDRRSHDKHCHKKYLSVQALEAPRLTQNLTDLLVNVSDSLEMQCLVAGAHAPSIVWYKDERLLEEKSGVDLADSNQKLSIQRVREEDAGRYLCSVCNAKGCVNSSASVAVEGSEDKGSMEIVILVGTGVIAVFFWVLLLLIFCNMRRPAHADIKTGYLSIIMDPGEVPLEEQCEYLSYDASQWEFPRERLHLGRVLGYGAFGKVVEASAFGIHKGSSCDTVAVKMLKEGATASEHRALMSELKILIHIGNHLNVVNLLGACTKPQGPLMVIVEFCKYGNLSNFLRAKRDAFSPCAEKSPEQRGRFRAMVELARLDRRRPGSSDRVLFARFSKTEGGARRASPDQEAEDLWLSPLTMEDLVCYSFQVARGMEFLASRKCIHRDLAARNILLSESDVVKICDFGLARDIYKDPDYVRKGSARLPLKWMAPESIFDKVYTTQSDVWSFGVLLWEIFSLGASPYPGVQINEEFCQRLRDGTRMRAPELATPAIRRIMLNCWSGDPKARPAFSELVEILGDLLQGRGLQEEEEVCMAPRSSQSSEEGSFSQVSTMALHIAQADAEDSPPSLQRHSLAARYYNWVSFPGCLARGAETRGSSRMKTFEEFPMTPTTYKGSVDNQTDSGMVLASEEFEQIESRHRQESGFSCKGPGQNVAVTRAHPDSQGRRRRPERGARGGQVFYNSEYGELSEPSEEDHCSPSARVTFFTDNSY

MET = MET (Homo sapiens, UniProt P08581); test: Radiometric kinase assay; assay type: biochemical; conditions: read-out: Kinase inhibition (%) MET
MET, sequence (P08581 25-1390): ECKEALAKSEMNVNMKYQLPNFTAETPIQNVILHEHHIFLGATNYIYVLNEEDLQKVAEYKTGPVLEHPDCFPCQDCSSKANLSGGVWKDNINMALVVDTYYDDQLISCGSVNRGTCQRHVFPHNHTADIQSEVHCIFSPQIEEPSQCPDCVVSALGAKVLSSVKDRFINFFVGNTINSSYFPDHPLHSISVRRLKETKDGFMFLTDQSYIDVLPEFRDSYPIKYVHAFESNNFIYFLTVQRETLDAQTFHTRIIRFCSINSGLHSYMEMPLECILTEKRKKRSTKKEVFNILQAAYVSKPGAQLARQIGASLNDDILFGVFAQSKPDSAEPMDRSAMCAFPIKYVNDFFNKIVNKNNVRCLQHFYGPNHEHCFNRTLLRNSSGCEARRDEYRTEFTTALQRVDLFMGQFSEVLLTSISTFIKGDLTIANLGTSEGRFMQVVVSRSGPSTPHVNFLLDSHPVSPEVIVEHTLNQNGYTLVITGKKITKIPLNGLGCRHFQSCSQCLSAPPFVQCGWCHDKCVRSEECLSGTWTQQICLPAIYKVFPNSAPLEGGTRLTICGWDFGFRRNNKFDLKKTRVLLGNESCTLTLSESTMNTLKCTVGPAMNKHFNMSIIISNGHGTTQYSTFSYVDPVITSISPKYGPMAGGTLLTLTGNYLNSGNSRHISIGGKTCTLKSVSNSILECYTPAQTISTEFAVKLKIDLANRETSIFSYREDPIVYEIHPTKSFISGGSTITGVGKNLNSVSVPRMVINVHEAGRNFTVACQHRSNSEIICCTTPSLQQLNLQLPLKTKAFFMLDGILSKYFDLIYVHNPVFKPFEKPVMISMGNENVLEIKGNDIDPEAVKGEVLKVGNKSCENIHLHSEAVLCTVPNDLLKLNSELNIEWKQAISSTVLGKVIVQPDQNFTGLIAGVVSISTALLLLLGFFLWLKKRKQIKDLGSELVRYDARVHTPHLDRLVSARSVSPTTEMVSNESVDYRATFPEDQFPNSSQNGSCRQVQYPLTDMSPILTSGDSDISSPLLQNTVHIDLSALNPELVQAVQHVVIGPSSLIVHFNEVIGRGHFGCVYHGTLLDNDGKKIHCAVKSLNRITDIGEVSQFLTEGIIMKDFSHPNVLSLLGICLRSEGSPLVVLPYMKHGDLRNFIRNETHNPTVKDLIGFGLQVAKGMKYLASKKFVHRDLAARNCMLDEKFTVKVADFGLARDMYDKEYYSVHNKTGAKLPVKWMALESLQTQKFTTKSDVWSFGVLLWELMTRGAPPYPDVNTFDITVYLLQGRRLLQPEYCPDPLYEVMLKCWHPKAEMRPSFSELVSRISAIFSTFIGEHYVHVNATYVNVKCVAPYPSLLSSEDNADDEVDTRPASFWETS

CDK2/cyclin A = CDK2/cyclin A (Homo sapiens, UniProt P24941); test: Radiometric kinase assay; assay type: biochemical; conditions: for inhibition at 10 µM: read-out: Kinase inhibition (%) CDK2/cyclin A
NIH3T3 = test: MTT assay, NIH3T3 non-cancer cell line; assay type: cell-based; conditions: Mus musculus, NIH3T3, 72 h, read-out: IC50 NIH3T3
KDR (VEGFR2) = KDR (VEGFR2) (Homo sapiens, UniProt P35968); test: Radiometric kinase assay; assay type: biochemical; conditions: read-out: Kinase inhibition (%) KDR (VEGFR2)
KDR (VEGFR2), sequence (P35968 20-1356): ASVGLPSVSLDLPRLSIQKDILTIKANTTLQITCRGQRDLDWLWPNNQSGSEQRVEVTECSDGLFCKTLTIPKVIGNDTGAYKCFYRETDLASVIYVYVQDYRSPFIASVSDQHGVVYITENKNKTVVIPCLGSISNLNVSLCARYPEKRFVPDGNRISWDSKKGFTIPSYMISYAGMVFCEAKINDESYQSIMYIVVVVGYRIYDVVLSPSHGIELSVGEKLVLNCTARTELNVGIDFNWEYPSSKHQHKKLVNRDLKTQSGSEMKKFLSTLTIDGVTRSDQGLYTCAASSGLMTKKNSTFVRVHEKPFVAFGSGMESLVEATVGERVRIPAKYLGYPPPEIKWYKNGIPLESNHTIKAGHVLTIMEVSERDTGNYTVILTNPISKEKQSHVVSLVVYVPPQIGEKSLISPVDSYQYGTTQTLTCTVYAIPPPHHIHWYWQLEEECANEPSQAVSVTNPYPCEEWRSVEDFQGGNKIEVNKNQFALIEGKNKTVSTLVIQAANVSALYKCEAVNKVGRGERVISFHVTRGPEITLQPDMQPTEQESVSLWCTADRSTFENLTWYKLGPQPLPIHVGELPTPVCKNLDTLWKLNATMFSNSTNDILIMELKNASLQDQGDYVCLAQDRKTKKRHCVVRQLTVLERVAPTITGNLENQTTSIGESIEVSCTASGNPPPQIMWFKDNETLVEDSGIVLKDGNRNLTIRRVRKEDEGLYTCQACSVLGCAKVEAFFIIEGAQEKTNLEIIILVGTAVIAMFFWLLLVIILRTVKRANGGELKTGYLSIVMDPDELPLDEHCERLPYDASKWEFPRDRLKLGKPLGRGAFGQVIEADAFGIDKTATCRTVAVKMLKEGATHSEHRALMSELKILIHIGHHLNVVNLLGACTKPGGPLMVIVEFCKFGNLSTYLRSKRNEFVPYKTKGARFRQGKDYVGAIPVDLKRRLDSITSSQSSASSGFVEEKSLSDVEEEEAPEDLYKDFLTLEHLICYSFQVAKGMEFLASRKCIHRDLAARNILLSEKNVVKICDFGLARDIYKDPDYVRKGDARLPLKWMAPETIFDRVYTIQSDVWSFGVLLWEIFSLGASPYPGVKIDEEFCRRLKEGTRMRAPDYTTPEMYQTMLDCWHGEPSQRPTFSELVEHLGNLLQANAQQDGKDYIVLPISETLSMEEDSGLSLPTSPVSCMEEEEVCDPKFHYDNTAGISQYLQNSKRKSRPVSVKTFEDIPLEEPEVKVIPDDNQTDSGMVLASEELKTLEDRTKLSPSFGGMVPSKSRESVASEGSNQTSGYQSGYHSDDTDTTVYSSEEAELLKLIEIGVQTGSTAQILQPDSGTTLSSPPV

PDGFRA (PDGFRα) = PDGFRA (PDGFRα) (Homo sapiens, UniProt P16234); test: Radiometric kinase assay; assay type: biochemical; conditions: for inhibition at 10 µM: read-out: Kinase inhibition (%) PDGFRA (PDGFRα)
PDGFRA (PDGFRα), sequence (P16234 24-1089): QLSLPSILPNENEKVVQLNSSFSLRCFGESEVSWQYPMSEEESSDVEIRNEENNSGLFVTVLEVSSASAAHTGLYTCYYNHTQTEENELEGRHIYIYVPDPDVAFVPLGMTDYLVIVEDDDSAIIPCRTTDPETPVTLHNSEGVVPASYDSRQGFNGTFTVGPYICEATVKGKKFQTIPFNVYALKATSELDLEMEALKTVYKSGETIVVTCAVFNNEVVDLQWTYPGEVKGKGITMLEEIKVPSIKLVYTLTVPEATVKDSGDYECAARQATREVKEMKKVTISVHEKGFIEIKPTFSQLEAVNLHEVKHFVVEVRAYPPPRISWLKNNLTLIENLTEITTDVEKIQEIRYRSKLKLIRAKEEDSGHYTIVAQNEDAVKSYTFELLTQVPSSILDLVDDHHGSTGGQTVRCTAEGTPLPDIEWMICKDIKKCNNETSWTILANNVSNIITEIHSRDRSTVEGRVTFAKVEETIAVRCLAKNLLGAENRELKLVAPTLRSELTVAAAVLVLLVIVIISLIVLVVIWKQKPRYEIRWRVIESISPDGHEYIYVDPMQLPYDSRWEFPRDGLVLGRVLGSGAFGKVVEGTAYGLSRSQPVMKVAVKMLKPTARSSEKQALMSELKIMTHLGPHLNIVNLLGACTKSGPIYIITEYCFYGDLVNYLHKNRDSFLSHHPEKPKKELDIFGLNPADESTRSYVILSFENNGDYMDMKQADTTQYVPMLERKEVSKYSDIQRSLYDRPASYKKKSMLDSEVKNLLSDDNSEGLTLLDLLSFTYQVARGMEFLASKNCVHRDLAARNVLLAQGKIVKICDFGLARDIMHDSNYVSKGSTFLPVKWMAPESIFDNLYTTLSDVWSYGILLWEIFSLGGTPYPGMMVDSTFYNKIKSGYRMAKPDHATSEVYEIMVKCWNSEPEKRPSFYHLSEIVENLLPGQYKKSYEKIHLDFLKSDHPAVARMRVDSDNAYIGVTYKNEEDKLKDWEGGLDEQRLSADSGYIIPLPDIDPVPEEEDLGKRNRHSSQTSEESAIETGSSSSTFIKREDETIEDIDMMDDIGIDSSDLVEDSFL

HT-29 = test: MTT antiproliferative assay, HT-29; assay type: cell-based, human; conditions: Homo sapiens, HT-29, 72 h, read-out: IC50 HT-29
NTRK1 (TrkA) = NTRK1 (TrkA) (Homo sapiens, UniProt P04629); test: Radiometric kinase assay; assay type: biochemical; conditions: read-out: Kinase inhibition (%) NTRK1 (TrkA)
PDGFRB (PDGFRβ) = PDGFRB (PDGFRβ) (Homo sapiens, UniProt P09619); test: Radiometric kinase assay; assay type: biochemical; conditions: read-out: Kinase inhibition (%) PDGFRB (PDGFRβ)
KIT (c-Kit) = KIT (c-Kit) (Homo sapiens, UniProt P10721); test: Radiometric kinase assay; assay type: biochemical; conditions: read-out: Kinase inhibition (%) KIT (c-Kit)
AKT2 = AKT2 (Homo sapiens, UniProt P31751); test: Radiometric kinase assay; assay type: biochemical; conditions: read-out: Kinase inhibition (%) AKT2
EGFR = EGFR (Homo sapiens, UniProt P00533); test: Radiometric kinase assay; assay type: biochemical; conditions: read-out: Kinase inhibition (%) EGFR
FLT1 (VEGFR1) = FLT1 (VEGFR1) (Homo sapiens, UniProt P17948); test: Radiometric kinase assay; assay type: biochemical; conditions: read-out: Kinase inhibition (%) FLT1 (VEGFR1)
ALK = ALK (Homo sapiens, UniProt Q9UM73); test: Radiometric kinase assay; assay type: biochemical; conditions: read-out: Kinase inhibition (%) ALK
FGFR1 = FGFR1 (Homo sapiens, UniProt P11362); test: Radiometric kinase assay; assay type: biochemical; conditions: read-out: Kinase inhibition (%) FGFR1
ABL1 = ABL1 (Homo sapiens, UniProt P00519); test: Radiometric kinase assay; assay type: biochemical; conditions: read-out: Kinase inhibition (%) ABL1
AXL = target: T1, AXL (Homo sapiens, UniProt P30530); test: Radiometric kinase assay; assay type: biochemical; conditions: read-out: Kinase inhibition (%) AXL
T1 sequence (P30530 26-894): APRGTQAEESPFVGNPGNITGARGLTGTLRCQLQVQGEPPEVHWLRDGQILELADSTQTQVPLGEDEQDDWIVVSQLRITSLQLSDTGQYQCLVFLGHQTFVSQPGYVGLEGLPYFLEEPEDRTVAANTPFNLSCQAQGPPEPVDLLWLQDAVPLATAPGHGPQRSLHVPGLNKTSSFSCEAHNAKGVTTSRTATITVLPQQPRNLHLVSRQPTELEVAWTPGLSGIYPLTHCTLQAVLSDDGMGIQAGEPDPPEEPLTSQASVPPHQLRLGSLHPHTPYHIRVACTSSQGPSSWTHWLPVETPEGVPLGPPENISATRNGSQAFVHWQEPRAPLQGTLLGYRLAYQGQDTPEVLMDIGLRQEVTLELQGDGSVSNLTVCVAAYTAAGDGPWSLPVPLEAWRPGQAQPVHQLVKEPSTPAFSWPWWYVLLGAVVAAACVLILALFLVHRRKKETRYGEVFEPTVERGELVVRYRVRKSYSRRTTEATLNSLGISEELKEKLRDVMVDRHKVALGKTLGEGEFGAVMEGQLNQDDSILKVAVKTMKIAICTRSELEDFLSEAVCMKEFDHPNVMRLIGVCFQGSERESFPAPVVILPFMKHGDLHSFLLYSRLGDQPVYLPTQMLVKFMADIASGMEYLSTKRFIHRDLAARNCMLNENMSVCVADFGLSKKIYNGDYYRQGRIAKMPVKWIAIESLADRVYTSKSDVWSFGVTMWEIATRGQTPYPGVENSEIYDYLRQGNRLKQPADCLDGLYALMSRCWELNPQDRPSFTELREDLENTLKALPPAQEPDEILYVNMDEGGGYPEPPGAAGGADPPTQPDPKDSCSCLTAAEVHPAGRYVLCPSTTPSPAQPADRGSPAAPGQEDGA

AKT1 = AKT1 (Homo sapiens, UniProt P31749); test: Radiometric kinase assay; assay type: biochemical; conditions: read-out: Kinase inhibition (%) AKT1
NTRK2 (TrkB) = NTRK2 (TrkB) (Homo sapiens, UniProt Q16620); test: Radiometric kinase assay; assay type: biochemical; conditions: read-out: Kinase inhibition (%) NTRK2 (TrkB)
AsPC-1 cells [1] = test: Apoptosis by Hoechst 33,258 staining; assay type: cell-based, human; conditions: AsPC-1, 10 and 30 µM, 48 h
AsPC-1 cells [2] = test: Cell cycle test, RNase/PI flow cytometry; assay type: cell-based, human; conditions: AsPC-1, 3, 10, 30, 50 µM, 48 h
[3] = system: EBC-1, AsPC-1, Mia-Paca-2, HT-29, MCF-7 cancer cells; test: MTT antiproliferative assay, cancer cell lines summarised; assay type: cell-based, human; conditions: MTT

| inhibition at 10 µM (FLT3) [%] | IC50 (AsPC-1) [µM] | IC50 (Mia-Paca-2) [µM] | IC50 (MCF-7) [µM] | inhibition at 10 µM (FLT4 (VEGFR3)) [%] | inhibition at 10 µM (MET) [%] | inhibition at 10 µM (CDK2/cyclin A) [%] | inhibition at 10 µM (KDR (VEGFR2)) [%] | inhibition at 10 µM (PDGFRA (PDGFRα)) [%] | IC50 (HT-29) [µM] | inhibition at 10 µM (NTRK1 (TrkA)) [%] | inhibition at 10 µM (PDGFRB (PDGFRβ)) [%] | inhibition at 10 µM (FLT1 (VEGFR1)) [%] | inhibition at 10 µM (AXL) [%] | inhibition at 10 µM (NTRK2 (TrkB)) [%] | Structure (SMILES) | IC50 (EBC-1) [µM] | IC50 (NIH3T3) [µM] | further results |
| --- | --- | --- | --- | --- | --- | --- | --- | --- | --- | --- | --- | --- | --- | --- | --- | --- | --- | --- |
| -2 | 12.8 ± 2.9 | 45 ± 8.2 | 22.3 ± 3.8 | 9 | -11 | 1 | -10 | 29 | 4.9 ± 0.9 | 6 | – | – | – | – | CC(C)c1ccc(Cn2cc(COc3ccc(NC4=CC(=O)c5ccccc5C4=O)cc3)nn2)cc1 [Compound 4 g, 2-((4-((1-(4-Isopropylbenzyl)−1H-1,2,3-triazol-4-yl)methoxy)phenyl)amino) naphthalene-1,4-dione] | 2 ± 0.5 | 24.5 ± 5.2 | – |
| -3 | 30.7 ± 2.2 | 1.3 ± 0.4 | > 100 | – | -8 | 32 | -19 | 37 | 56.9 ± 4.3 | 4 | 17 | -17 | 5 | 13 | O=C1C=C(Nc2ccc(OCc3cn(Cc4ccc(Br)cc4)nn3)cc2)C(=O)c2ccccc21 [Compound 4b, 2-((4-((1-(4-Bromobenzyl)−1H-1,2,3-triazol-4 yl)methoxy)phenyl)amino) naphthalene-1,4-dione] | 2 ± 1.2 | 50.9 ± 8.8 | inhibition at 10 µM (KIT (c-Kit)): -9%; inhibition at 10 µM (AKT2): -10%; inhibition at 10 µM (EGFR): -9%; inhibition at 10 µM (ALK): 2%; inhibition at 10 µM (FGFR1): 1%; inhibition at 10 µM (ABL1): 2%; inhibition at 10 µM (AKT1): 9% |
| – | 5.4 ± 0.9 | 20.6 ± 6.2 | 13.9 ± 0.7 | 87 | 16 | 51 | 28 | 74 | 1.3 ± 0.5 | – | 5 | -17 | 8 | 19 | Cc1ccc(Cn2cc(COc3ccc(NC4=CC(=O)c5ccccc5C4=O)cc3)nn2)cc1 [Compound 4i, 2-((4-((1-(4-Methylbenzyl)−1H-1,2,3-triazol-4-yl)methoxy)phenyl)amino) naphthalene-1,4-dione] | 2.5 ± 0.3 | 25.5 ± 6.1 | Apoptosis induction (nuclear morphology) (AsPC-1 cells [1]): characteristic features of apoptosis including densely packed chromatin within the nucleus as well as nuclear fragmentation; Effect on cell cycle distribution (S and G2/M phases) (AsPC-1 cells [2]): dose-dependently increased the number of cells in the S phase and simultaneously reduced the cells in G2/M phase; IC50 (FLT4 (VEGFR3)): 1.336 ± 0.006 µM; IC50 (CDK2/cyclin A): 11.3 ± 0.477 µM; IC50 (PDGFRA (PDGFRα)): 0.22 ± 0.009 µM |
| – | > 100 | > 100 | > 100 | – | – | – | – | – | > 50 | – | – | – | – | – | O=C1C=C(Nc2ccc(OCc3cn(CCN4C(=O)c5ccccc5C4=O)nn3)cc2)C(=O)c2ccccc21 [Compound 4j, 2-(2-(4-((4-((1,4-Dioxo-1,4-dihydronaphthalen-2-yl)amino)phenoxy)methyl)−1H-1,2,3-triazol-1-yl)ethyl)isoindoline-1,3-dione] | > 50 | – | Antiproliferative activity against cancer cell lines (in words) [3]: devoid of any antiproliferative potential against all cancer cells |
